Data on three compounds can be found in patent publication US20250163119A1, “COMPOUNDS FOR THE TREATMENT OF DIABETES OR OBESITY” (Eli Lilly and Company, priority 2023, published 2025).

The target in data set [1] is T1, CRHR1 receptor (Y79 cells) (Homo sapiens, UniProt P34998).
T1 construct: host or cells: Y79 human retinoblastoma cells
T1 sequence (P34998 24-415): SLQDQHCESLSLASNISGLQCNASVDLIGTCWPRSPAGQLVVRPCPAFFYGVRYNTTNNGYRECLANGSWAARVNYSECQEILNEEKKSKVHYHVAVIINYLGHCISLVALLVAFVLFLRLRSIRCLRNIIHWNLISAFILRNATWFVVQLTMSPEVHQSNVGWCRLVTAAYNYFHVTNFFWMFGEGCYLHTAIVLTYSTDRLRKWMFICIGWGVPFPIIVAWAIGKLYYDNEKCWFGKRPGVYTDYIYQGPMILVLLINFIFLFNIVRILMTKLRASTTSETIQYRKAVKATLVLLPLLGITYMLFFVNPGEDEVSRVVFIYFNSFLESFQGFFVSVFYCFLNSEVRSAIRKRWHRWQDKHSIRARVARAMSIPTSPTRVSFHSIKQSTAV
In words: Human Y79 cAMP assay (native cell line expressing endogenous CRHR1). It is filed as cell-based. The conditions noted are these: human Y79 cells (CRHR1, no detectable CRHR2); mean ± SE. As to the method: Y79 cells, a human retinoblastoma cell line, express a high level of human CRHR1 with no detectable CRHR2. A7r5 cells, a rat aortic smooth muscle cell line, only express CRHR2 receptor with no detectable CRHR1. The rat CRHR2 gene shares 93% homology of nucleotides sequences with human CRHR2 and responds to human UCN2. Therefore, these two native cell lines were used for additional characterization of polypeptide selectivity.
Y79 cells were grown in a suspension culture as recommended by ATCC in the media containing RPMI (Gibco Cat #11875093) and 20% FBS (Gibco dialyzed Cat #26400044). Y79 cells were incubated at 37° C. with 5% CO2. A subcultivation was performed by removing the supernatant after centrifugation and suspending the cell pellet in fresh medium (A subcultivation ratio was 1:5). […]
The amount of intracellular cAMP was quantitated using HTRF technology (Homogeneous Time Resolved Fluorescence; Cisbio) as per vendor instructions. […] The HTRF signal was immediately detected using an Envision plate reader (Perkin-Elmer) to calculate the ratio of fluorescence at 665 to 620 nm. […]
Raw fluorescence data for concentration curves of the peptides in Table 2 and Table 3 were converted to cAMP amount (pmol/well) using a cAMP standard curve generated for each experiment.

The nature of data set [2]: Pharmacokinetics in Cynomolgus monkeys, single subcutaneous or intravenous dose. Conditions: for Tmax: read-out: Tmax. In kind it is in vivo. The method, then:
Plasma concentrations of compounds were determined by LC/MS methods. For each assay, the compound and an internal standard (IS), were extracted from 100% mouse, rat, pig, or monkey plasma (70 μL) using Isopropanol-Methanol. Two distinct layers were formed upon centrifugation with the compound and the IS located in the supernatant layer. An aliquot of the supernatant (150 μL) was transferred to a Waters Sirocco Protein Precipitation Plate. The supernatant was eluted using a positive pressure manifold. The supernatant was mixed with 100-2 Water-Formic acid (400 μL) in a pretreated Sep-Pak tC18 SPE plate and eluted to waste. The peptide and IS were eluted with Acetonitrile-Formic acid (100 μL) in 2 steps (50 μL each step). The elution (40 μL) from SPE plate was mixed with diluent solution (1.875 μL 5× invitrosol and 3.125 μL 1% formic acid in water, 80 μL). A final sample (10 μl) was loaded onto a Xselect CSH C18 IS column (3.5 μm 2.1×20 mm). The column effluent was directed into a Thermo Fisher Scientific Orbitrap (Exploris 240) mass spectrometer for detection and quantitation.
Male and female Cynomolgus monkeys were administered a single subcutaneous dose or intravenous dose (183 to 190 nmol/kg) of compound in 40 mM Tris-HCl 5% D-mannitol (pH 8) at a volume of 0.5 mL/kg. Blood was collected from each animal at 0.5, 3, 6, 24, 48, 72, 96, 168, 240, 336, 408, and 504 hours postdose for pharmacokinetic characterization.

The subject of data set [3] is pre-existing antibodies (ADA) in treatment-naive normal human serum. In words: Pre-existing reactivity (ACE assay format). In kind it is binding. Conditions: ACE assay format. The method, then:
This assay assessed the presence of pre-existing antibodies (ADA) against the tested molecules in treatment-naive normal human serum (NHS). Diluted NHS was incubated overnight on a Pierce Streptavidin plate coated with biotinylated tested molecules. On the following day, the captured binding proteins were acid eluted, hard-coated to a Mesoscale (MSD) plate, and detected with a combination of biotin-labeled molecule and ruthenium-labeled streptavidin. If anti-drug antibodies were present, they would bind the labeled drug and the resulting signal was referred to as Tier 1 signal (expressed as electrochemiluminescence). […] The presence of pre-existing anti-drug antibodies was expressed as magnitude of the 90th percentile of Tier 2 inhibition. The 90th percentile of Tier 2 inhibition is a statistical tool to assess the magnitude of specificity of Tier 1 reactivity. This 90th percentile was used to rank molecules in terms of ADA risk.

The mark [4] stands for this setting: both sexes, cynomolgus monkey, plasma, iv, 190 nmol/kg, single intravenous dose 190 nmol/kg, Mean.
[5] abbreviates: both sexes, cynomolgus monkey, plasma, iv, 190 nmol/kg, single intravenous dose 190 nmol/kg, individual animal.
Setting [6] is: both sexes, cynomolgus monkey, plasma, sc, 190 nmol/kg, single subcutaneous dose 190 nmol/kg, Mean.
Setting [7] is: both sexes, cynomolgus monkey, plasma, sc, 190 nmol/kg, single subcutaneous dose 190 nmol/kg, individual animal.
The mark [8] stands for this setting: single intravenous dose 190 nmol/kg, individual animal.
The mark [9] stands for this setting: single subcutaneous dose 190 nmol/kg, individual animal.

Where “and” joins values, the source holds several entries; their conditions need not be identical. Equal entries are not always repeated. Where two headings read alike, the source gives them in different places. *1 amine or outer side, *2 acyl side, *3 side chain or, on linkers, in order; H or OH if unused. Where a SMILES comes first, the peptide text is derived from it. Side-chain parts run from the residue outwards. [ ]: non-standard residue; d: D form. The star is where a group is joined. C20 diacid = O=C(O)CCCCCCCCCCCCCCCCCCC(=O)*; γGlu = O=C(O)[C@H](CCC(=O)[*:2])N[*:1]; εLys = N[C@@H](CCCCN[*:1])C(=O)[*:2]; NMeI = CC[C@H](C)[C@H](NC)C(=O)O; αMeL = CC(C)C[C@](C)(N)C(=O)O; AEEA = NCCOCCOCC(=O)O; Aib = CC(C)(N)C(=O)O

For `CC[C@H](C)[C@H](NC)C(=O)N[C@H](C(=O)N[C@H](C(=O)N[C@@H](CO)C(=O)N[C@@H](CC(C)C)C(=O)N[C@@H](CC(=O)O)C(=O)N[C@H](C(=O)N1CCC[C@H]1C(=O)N[C@H](C(=O)NCC(=O)N[C@@](C)(CC(C)C)C(=O)N[C@@H](CC(C)C)C(=O)N[C@@H](CCC(N)=O)C(=O)N[C@@H](CCCCN)C(=O)N[C@@H](CC(C)C)C(=O)N[C@H](C(=O)N[C@@H](CCC(=O)O)C(=O)N[C@@H](CCC(N)=O)C(=O)N[C@@H](CCC(=O)O)C(=O)N[C@@H](CCCCN)C(=O)N[C@@H](CCC(N)=O)C(=O)N[C@@H](CCC(=O)O)C(=O)N[C@@H](CCCCN)C(=O)N[C@@H](CCC(=O)O)C(=O)N[C@@H](CCCCN)C(=O)N[C@@H](CCC(N)=O)C(=O)N[C@@H](CCC(N)=O)C(=O)N[C@@H](C)C(=O)N[C@@H](CCCCNC(=O)COCCOCCNC(=O)COCCOCCNC(=O)CC[C@H](NC(=O)CCCCCCCCCCCCCCCCCCC(=O)O)C(=O)O)C(=O)N[C@@H](CCC(=O)O)C(=O)N[C@@H](CC(N)=O)C(=O)N[C@H](C(=O)N[C@@H](CCC(=O)O)C(=O)N[C@H](C(=O)N[C@@H](CC(C)C)C(=O)N[C@@H](C)C(=O)N[C@@H](CCC(N)=O)C(=O)N[C@H](C(N)=O)C(C)C)[C@@H](C)CC)[C@@H](C)O)[C@@H](C)CC)[C@@H](C)CC)C(C)C)[C@@H](C)O)C(C)C` [SEQ ID NO: 49, (NMeI) VTSLDVPIG αMeL LQKLIEQEKQEKEKQQAK((2-[2-(2-Amino-ethoxy)-ethoxy]-acetyl)2-γE-CO-(CH2)18-CO2H)ENTEILAQV-NH2] (H-[NMeI]VTSLDVPIG[αMeL]LQKLIEQEKQEKEKQQAK([AEEA-AEEA-γGlu-C20 diacid])ENTEILAQV-NH2), the EC50 – broadly, the concentration that produces a half-maximal response – in data set [1] is > 1e+07 pM.
For `CC[C@H](C)[C@H](NC)C(=O)N[C@H](C(=O)N[C@H](C(=O)N[C@@H](CO)C(=O)N[C@@H](CC(C)C)C(=O)N[C@@H](CC(=O)O)C(=O)N[C@H](C(=O)N1CCC[C@H]1C(=O)N[C@H](C(=O)NCC(=O)N[C@@](C)(CC(C)C)C(=O)N[C@@H](CC(C)C)C(=O)N[C@@H](CCC(N)=O)C(=O)N[C@@H](CCCCN)C(=O)N[C@@H](CC(C)C)C(=O)N[C@@H](CC(C)C)C(=O)N[C@@H](CCC(=O)O)C(=O)N[C@@H](CCC(N)=O)C(=O)N[C@@H](CCC(=O)O)C(=O)N[C@@H](CCCNC(=N)N)C(=O)N[C@@H](C)C(=O)N[C@@H](CCC(=O)O)C(=O)N[C@@H](CCCCN)C(=O)N[C@@H](C)C(=O)N[C@@H](CCCNC(=N)N)C(=O)N[C@@H](CCC(N)=O)C(=O)N[C@@H](CCC(N)=O)C(=O)N[C@@H](C)C(=O)N[C@@H](CCCCNC(=O)COCCOCCNC(=O)COCCOCCNC(=O)CC[C@H](NC(=O)CCCCCCCCCCCCCCCCCCC(=O)O)C(=O)O)C(=O)N[C@@H](CCC(=O)O)C(=O)N[C@@H](C)C(=O)N[C@@H](C)C(=O)N[C@@H](CCC(=O)O)C(=O)N[C@H](C(=O)N[C@@H](CC(C)C)C(=O)N[C@@H](C)C(=O)N[C@@H](CCC(N)=O)C(=O)N[C@H](C(N)=O)C(C)C)[C@@H](C)CC)[C@@H](C)CC)C(C)C)[C@@H](C)O)C(C)C` [SEQ ID NO: 50, (NMeI) VTSLDVPIG αMeL LQKLLEQERAEKARQQAK((2-[2-(2-Amino-ethoxy)-ethoxy]-acetyl)2-γE-CO-(CH2)18-CO2H)EAAEILAQV-NH2] (H-[NMeI]VTSLDVPIG[αMeL]LQKLLEQERAEKARQQAK([AEEA-AEEA-γGlu-C20 diacid])EAAEILAQV-NH2), the EC50 in data set [1] was > 1e+07 pM.
On to “{C20 diacid-εLys-AEEA-γGlu}-GSPSIVTS[αMeL]DVPT[Aib][αMeL]LQKILEQERAEKARQQATEAAEILAQV-NH2 [SEQ ID NO: 25]”, for which the figures for the clearance in data set [2] (setting [4]) and in data set [2] (setting [5]) were 11.5 mL/day/kg and 12.8 mL/day/kg, respectively. The half-life (in general, the time needed for the level to fall by half in the phase considered) is 113 h in data set [2] (setting [4]), 100 h in data set [2] (setting [5]), 199 h in data set [2] (setting [6]) and 184 h in data set [2] (setting [7]). Besides, the CL/F in data set [2] (both sexes, cynomolgus monkey, plasma, sc, 190 nmol/kg, single subcutaneous dose 190 nmol/kg, Mean, read-out: CL/F (converted)) was 12.3 mL/day/kg; in data set [2] (both sexes, cynomolgus monkey, plasma, sc, 190 nmol/kg, single subcutaneous dose 190 nmol/kg, individual animal, read-out: CL/F (converted)), 14.4 mL/day/kg; in data set [2] (setting [9]), 10.2 mL/day/kg. Besides, the Tmax in data set [2] (setting [6]) and in data set [2] (setting [7]) was 24 h each time. The AUC0-inf in data set [2] (both sexes, cynomolgus monkey, plasma, sc, single subcutaneous dose 190 nmol/kg, Mean, read-out: AUC0-inf) was 458 µM·h; in data set [2] (both sexes, cynomolgus monkey, plasma, single intravenous dose 190 nmol/kg, Mean, read-out: AUC0-inf), 402 µM·h; in data set [2] (setting [8]) it was 355 µM·h and 449 µM·h; in data set [2] (setting [9]), 364 µM·h and 551 µM·h. Also, the Cmax (in general, the maximum level reached in the sampled fluid or tissue) was 1610 nM in data set [2] (both sexes, cynomolgus monkey, plasma, sc, single subcutaneous dose 190 nmol/kg, Mean, read-out: Cmax); 1540 nM and 1680 nM in data set [2] (setting [9]). In addition, the C0 in data set [2] (both sexes, cynomolgus monkey, plasma, single intravenous dose 190 nmol/kg, Mean, read-out: C0) was 3500 nM; in data set [2] (setting [8]), 3040 nM and 3960 nM. For the same compound, in data set [2] (setting [8]), the “CL” value amounted to 10.1 mL/day/kg. For the same compound, the “T1/2” value in data set [2] (setting [8]) came to 126 h; in data set [2] (setting [9]), 214 h. The “Pre-existing Reactivity 90th percentile T2 inhibition >50 donors” value in data set [3] turned out to be 4.5%.
